# Results: PubChem BioAssay (NCI)
#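 How tested: cells in 96-well plates exposed to compound for 48 hours at five concentrations. GI50 is the concentration that inhibits growth by half. At the TGI there is no net growth.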
# Legend:
# Assay in all cases: NCI tumour cell line growth inhibition, 48 h
# [1] = test system: BT-549 breast
# [2] = test system: MDA-MB-468 breast
# [3] = test system: CCRF-CEM leukemia
# [4] = test system: RXF 393 renal
# [5] = test system: T-47D breast
# [6] = test system: DU-145 prostate
# [7] = test system: OVCAR-8 ovarian
# [8] = test system: MCF7 breast
# [9] = test system: SF-295 CNS
# [10] = test system: OVCAR-3 ovarian
# [11] = test system: SNB-75 CNS
# [12] = test system: A549 NSCLC
# [13] = test system: SN12C renal
# [14] = test system: PC-3 prostate
# [15] = test system: RPMI-8226 leukemia
# [16] = test system: SK-MEL-2 melanoma
# [17] = test system: HCT-116 colon
# [18] = test system: TK-10 renal
# [19] = test system: UACC-257 melanoma
# [20] = test system: SW-620 colon
# [21] = test system: 786-0 renal
# [22] = test system: MDA-MB-231 breast
# [23] = test system: HCT-15 colon
# [24] = test system: OVCAR-5 ovarian
# [25] = test system: HT29 colon
# [26] = test system: CAKI-1 renal
# [27] = test system: SK-OV-3 ovarian
# [28] = test system: NCI-H460 lung
# [29] = test system: IGROV1 ovarian
# [30] = test system: NCI-H23 lung
# [31] = test system: U251 CNS
# [32] = test system: COLO 205 colon
# [33] = test system: MOLT-4 leukemia
# [34] = test system: K-562 leukemia
# [35] = test system: ACHN renal
# [36] = test system: NCI-H226 lung
# [37] = test system: HOP-92 NSCLC
# [38] = test system: SNB-19 CNS
# [39] = test system: UACC-62 melanoma
# [40] = test system: M14 melanoma
# [41] = test system: SK-MEL-28 melanoma
# [42] = test system: A498 renal
# [43] = test system: OVCAR-4 ovarian
# [44] = test system: HS 578T breast
# [45] = test system: LOX IMVI melanoma
# [46] = test system: EKVX NSCLC
# [47] = test system: SR leukemia
# [48] = test system: HL-60(TB) leukemia
# [49] = test system: NCI-H522 lung
# [50] = test system: SK-MEL-5 melanoma
# [51] = test system: HCC-2998 colon
# [52] = test system: HOP-62 NSCLC
# [53] = test system: MALME-3M melanoma
# [54] = test system: MDA-MB-435
# [55] = test system: UO-31 renal
# [56] = test system: SF-539 CNS
# [57] = test system: SF-268 CNS
# [58] = test system: KM12 colon
# [59] = test system: NCI/ADR-RES ovarian
smiles,measurement,setting,value
CC12OOC(C)(OO1)C2CCC(=O)NCCCNc1ccnc2cc(Cl)ccc12 (stereo not drawn),GI50,[1],> 20 µM
same,TGI,[1],> 20 µM
same,GI50,[2],3.6 µM
same,TGI,[2],8.97 µM
same,GI50,[3],4.51 µM
same,TGI,[3],14.1 µM
same,GI50,[4],3.69 µM
same,TGI,[4],9.56 µM
same,GI50,[5],4.35 µM
same,TGI,[5],13.4 µM
same,GI50,[6],3.58 µM
same,TGI,[6],6.52 µM
same,GI50,[7],> 20 µM
same,TGI,[7],> 20 µM
same,GI50,[8],8.11 µM
same,TGI,[8],> 20 µM
same,GI50,[9],> 20 µM
same,TGI,[9],> 20 µM
same,GI50,[10],2.97 µM
same,TGI,[10],5.83 µM
same,GI50,[11],> 20 µM
same,TGI,[11],> 20 µM
same,GI50,[12],4.22 µM
same,TGI,[12],9.86 µM
same,GI50,[13],> 20 µM
same,TGI,[13],> 20 µM
same,GI50,[14],> 20 µM
same,TGI,[14],> 20 µM
same,GI50,[15],9.51 µM
same,TGI,[15],> 20 µM
same,GI50,[16],> 20 µM
same,TGI,[16],> 20 µM
same,GI50,[17],5.56 µM
same,TGI,[17],17.6 µM
same,GI50,[18],4.62 µM
same,TGI,[18],14.5 µM
same,GI50,[19],9.4 µM
same,TGI,[19],> 20 µM
same,GI50,[20],4.3 µM
same,TGI,[20],> 20 µM
same,GI50,[21],3.5 µM
same,TGI,[21],7.16 µM
same,GI50,[22],8.26 µM
same,TGI,[22],> 20 µM
same,GI50,[23],4.03 µM
same,TGI,[23],9.17 µM
same,GI50,[24],> 20 µM
same,TGI,[24],> 20 µM
same,GI50,[25],3.86 µM
same,TGI,[25],7.47 µM
same,GI50,[26],3.31 µM
same,TGI,[26],6.07 µM
same,GI50,[27],> 20 µM
same,TGI,[27],> 20 µM
same,GI50,[28],12.7 µM
same,TGI,[28],> 20 µM
same,GI50,[29],7.07 µM
same,TGI,[29],> 20 µM
same,GI50,[30],> 20 µM
same,TGI,[30],> 20 µM
same,GI50,[31],> 20 µM
same,TGI,[31],> 20 µM
same,GI50,[32],3.69 µM
same,TGI,[32],7.68 µM
same,GI50,[33],8.6 µM
same,TGI,[33],> 20 µM
same,GI50,[34],4.28 µM
same,TGI,[34],10.1 µM
same,GI50,[35],3.45 µM
same,TGI,[35],6.22 µM
same,GI50,[36],> 20 µM
same,TGI,[36],> 20 µM
same,GI50,[37],3.34 µM
same,TGI,[37],6.87 µM
same,GI50,[38],> 20 µM
same,TGI,[38],> 20 µM
same,GI50,[39],12.6 µM
same,TGI,[39],> 20 µM
same,GI50,[40],3.66 µM
same,TGI,[40],7.4 µM
same,GI50,[41],> 20 µM
same,TGI,[41],> 20 µM
same,GI50,[42],> 20 µM
same,TGI,[42],> 20 µM
same,GI50,[43],3.19 µM
same,TGI,[43],6.64 µM
same,GI50,[44],> 20 µM
same,TGI,[44],> 20 µM
same,GI50,[45],3.06 µM
same,TGI,[45],5.85 µM
same,GI50,[46],3.8 µM
same,TGI,[46],7.99 µM
same,GI50,[47],3.88 µM
same,TGI,[47],8.71 µM
same,GI50,[48],3.6 µM
same,TGI,[48],8.63 µM
same,GI50,[49],2.66 µM
same,TGI,[49],5.59 µM
same,GI50,[50],> 20 µM
same,TGI,[50],> 20 µM
same,GI50,[51],> 20 µM
same,TGI,[51],> 20 µM
same,GI50,[52],> 20 µM
same,TGI,[52],> 20 µM
same,GI50,[53],3.35 µM
same,TGI,[53],6.31 µM
same,GI50,[54],4.84 µM
same,TGI,[54],16.2 µM
same,GI50,[55],3.1 µM
same,TGI,[55],5.78 µM
same,GI50,[56],11.3 µM
same,TGI,[56],> 20 µM
same,GI50,[57],> 20 µM
same,TGI,[57],> 20 µM
same,GI50,[58],> 20 µM
same,TGI,[58],> 20 µM
same,GI50,[59],> 20 µM
same,TGI,[59],> 20 µM
